ChEMBL document CHEMBL3745612, “Synthesis and biological evaluation of thiophene and benzo[b]thiophene analogs of combretastatin A-4 and isocombretastatin A-4: A comparison between the linkage positions of the 3,4,5-trimethoxystyrene unit” (Bioorg Med Chem Lett, 2016)

Legend:
MES-SA = test: Antiproliferative activity against human MES-SA cells after 72 hrs by resazurin assay; assay type: functional, cell-based
Tubulin = test: Inhibition of Tubulin polymerization in human HeLa cells assessed as decrease in dynamic tyrosinated microtubules after 2 hrs by microplate reader analysis; assay type: cell-based
[1] = Antiproliferative activity against human IC8 cells after 72 hrs by MTT assay; assay type: functional, cell-based; details: IC8, 72 h
[2] = Inhibition of sheep brain tubulin polymerization incubated at 37 degC for 10 mins and 0 degC for 5 mins by turbidimetry; parameters: species or system Ovis aries

SMILES | EC50 (Tubulin) [nM] | EC50 [2] [nM] | IC50 (MES-SA) [nM] | IC50 [1] [nM]
C=C(c1cc(OC)c(OC)c(OC)c1)c1cc2ccccc2s1 | 321 | – | 95 | 101
COc1cc(C(=O)c2cc3ccccc3s2)cc(OC)c1OC | > 10000 | – | – | –
COc1cc(/C=C/c2cc3ccccc3s2)cc(OC)c1OC | 3180 | – | – | –
C=C(c1cc(OC)c(OC)c(OC)c1)c1csc2ccccc12 | 3900 | – | – | –
C=C(c1cc(OC)c(OC)c(OC)c1)c1cccs1 | > 10000 | – | – | –
COc1cc(C(=O)c2csc3ccccc23)cc(OC)c1OC | > 10000 | – | – | –
C=C(c1ccsc1)c1cc(OC)c(OC)c(OC)c1 | > 10000 | – | – | –
COc1ccc(/C=C\c2cc(OC)c(OC)c(OC)c2)cc1O [COMBRETASTATIN A4] | – | – | 3 | 4
C=C(c1cc(OC)c(OC)c(OC)c1)c1cc2ccccc2o1 | > 10000 | – | – | –
COc1cc2c(c(OC)c1OC)-c1ccc(OC)c(=O)cc1[C@@H](NC(C)=O)CC2 [COLCHICINE] | – | – | 15 | 15
COc1cc(/C=C\c2csc3ccccc23)cc(OC)c1OC | 2430 | – | 191 | 288

Now from value to molecule, other results behind:

EC50 (Tubulin) [nM] | EC50 [2] [nM] | SMILES | IC50 (MES-SA) [nM] | IC50 [1] [nM]
81 | – | COc1csc(/C=C\c2cc(OC)c(OC)c(OC)c2)c1 | 25 | 27
> 10000 | – | COc1cc(/C=C\c2ccsc2)cc(OC)c1OC | – | –
> 10000 | – | COc1cc(/C=C\c2cccs2)cc(OC)c1OC | – | –
2600 | 80 | COc1cc(/C=C\c2cc3ccccc3s2)cc(OC)c1OC | 13 | 17
1560 | – | COc1ccc(/C=C\c2cc(OC)c(OC)c(OC)c2)s1 | 53 | 76
